Like-named read-outs stand apart in the source and are kept apart here.
Assay: Rat PK PBL cassette (i.v.)
Format: in vivo, Sprague-Dawley rat
Settings: for Kp at 0.25 h: brain and plasma, read-out: Kp (total brain to plasma ratio); for Kp at 0.25 h / AUC / clearance / half-life / MRT / Vd / Kp (total brain to plasma ratio) / CLp / Elim. t1/2 / Vss: male SD rat, 0.2 mg/kg i.v. cassette; for Kp at 0.25 h / Kp (total brain to plasma ratio): 0.25 time point (15 min post dosing); for AUC / clearance / half-life / MRT / Vd / CLp / Elim. t1/2 / Vss: n = 1; for clearance: read-out: CLp; for half-life: read-out: Elim. t1/2 (converted); for Vd: read-out: Vss
Description: While ML133 has found use as a Kir2.1 tool molecule across many disease models, the in vivo PK of this and related compounds within the dibenzylamine chemotype have not previously been characterized. As a highly efficient method for profiling the PK of a compound set, we therefore examined ML133 (alongside 9 additional next-generation Kir2.1 inhibitors) in our rat PK PBL cassette dosing platform (Table ). − From this experimental setup, administration of a 4-compound bolus dose, plus a standard control, can be used to determine a variety of PK parameters in a high-throughput fashion. Specifically, Sprague–Dawley (SD) rats were given 0.2 mg/kg of each Kir2.1 inhibitor (i.v. dosing, 4 compounds +1 control, total dose 1 mg/kg) with PK measured across set time points up to 24 h. Additionally, a separate cohort of animals was utilized to assess total plasma-brain levels (PBL, ratio reported as Kp) of compound at a 0.25 time point. In this fashion, standard plasma-based PK parameters (elimination t 1/2, […] (MRT), plasma clearance (CLp), and volume of distribution (Vss)) were measured alongside a parallel assessment of total brain exposure.
PK PBL Cassette Experimental Conditions
4 compounds plus one control were formulated as a solution in ethanol, PEG400, and DMSO (1:3:6 v/v, respectively) at a concentration of 1 mg/mL and administered as a single IV dose (1 mL/kg, 0.2 mg/kg per compound, total 1 mg/kg) to male, Sprague Dawley rats (n = 1) via injection into a surgically -implanted jugular vein catheter. Blood samples were collected serially from a surgically implanted carotid artery catheter in each animal over multiple post -administration time points (0.033, 0.117, 0.25, 0.5, 1, 2, 4, 7, and 24 hours) into chilled, K 2EDTA anticoagulant - fortified tubes and immediately placed on wet ice. The blood samples were then centrifuged (1700 rcf, 5 minutes, 4 °C) to ob tain plasma samples, which were stored at -80 °C until analysis […]
For determination of the brain over plasma ratio (K p), the same cassette of compounds plus control were formulated in ethanol, PEG400, and DMSO (1:3:6 v/v, respectively) and administered as a single IV dose (1 mL/kg, 0.2 mg/kg per compound, total 1 mg/kg) to male, Sprague Dawley rats ( n = 1) via injection into a surgically-implanted jugular vein catheter. At 15 min post dosing, blood sample was collected terminally into chilled, K 2EDTA anticoagulant-fortified tube and immediately placed on wet ice. The bloo d sample was then centrifuged (1700 rcf, 5 minutes, 4 °C) to obtain plasma sample. At the same post-administration time point, whole brain sample was obtained by rapid dissection, rinsed with PBS, and immediately frozen in individual tissue collection box (dry ice). All brain and plasma samples were stored at -80 °C until […]
Samples preparation for bioanalysis
Plasma samples from the in-life phase of the study were thawed at ambient temperature (benchtop), and then aliquots (20 µL per sample) were transferred to a 96-shallow-well (V-bottom) plate. Matrix-matched quality control (QC) samples and a standard curve of each analyte (1 mg/mL DMSO stock solution) were prepared in blank rat plasma (K2EDTA-treated) via serial dilution and transferred (20 µL each) to the plate along with multiple blank plasma samples. MeCN (120 µL) containing IS (10 nM carbamazepine) was added to each well of the plate to precipitate protein. The plate was then centrifuged (4000 rcf, 5 minutes, ambient temperature), and resulting supernatants (60 µL each) were transferred to a new 96-shallow-well (V-bottom) plate containing an equal volume (60 µL per well) of water (Milli-Q purified). The plate was then sealed in preparation for LC-MS/MS analysis.
Preparation of brain samples was identical to that of plasma samples except for the following modifications. While thawing, brains were weighed (inside their collection boxes using a universal empty collection box tare weight) and then subjected to mechanical homogenization […]

[1] = Sprague-Dawley, plasma, iv, read-out: AUC
[2] = Sprague-Dawley, plasma, iv, read-out: MRT

Kp at 0.25 h (Sprague-Dawley, iv) | AUC [1] | clearance (Sprague-Dawley, plasma, iv) | half-life (Sprague-Dawley, plasma, iv) | MRT [2] | Vd (Sprague-Dawley, plasma, iv) | Fold longer t1/2 compared to ML133 (rat i.v. cassette) | Fold lower overall plasma clearance compared to ML133 (rat i.v. cassette) | Kp (total brain to plasma ratio) | AUC | CLp | Elim. t1/2 | MRT | Vss | SMILES
2.13 | 110 ng·h/mL | 30.4 mL/min/kg | 1.33 h | 0.87 h | 1.58 L/kg | – | – | – | – | – | – | – | – | COc1ccc(CNCc2ccc3c(c2)OC(F)(F)O3)cc1 [Compound 5h]
4.23 | 105 ng·h/mL | 31.7 mL/min/kg | 1.18 h | 1 h | 1.9 L/kg | – | – | – | – | – | – | – | – | COc1ccc(CNCc2cccc(-c3ccccc3)c2)cc1 [Compound 5j]
1.82 | 148 ng·h/mL | 22.6 mL/min/kg | 1.68 h | 1.08 h | 1.46 L/kg | – | – | – | – | – | – | – | – | COc1ccc(CNCc2ccc(-c3ccccc3)cc2)cc1 [Compound 5k]
2.27 | 109 ng·h/mL | 30.6 mL/min/kg | 0.69 h | 0.76 h | 1.39 L/kg | – | – | – | – | – | – | – | – | COc1ccc(CNCc2ccc(-c3cccc(F)c3)cc2)cc1 [Compound 5p]
1.81 | 189 ng·h/mL | 17.7 mL/min/kg | 1.56 h | 0.99 h | 1.06 L/kg | – | – | – | – | – | – | – | – | COc1ccc(CNCc2ccc(-c3cccc(OC)c3)cc2)cc1 [Compound 5s, 1-(3′-Methoxy-[1,1’-biphenyl]-4-yl)-N-(4-methoxybenzyl)methanamine]
1.25 | 165 ng·h/mL | 20.2 mL/min/kg | 1.66 h | 0.99 h | 1.2 L/kg | – | – | – | – | – | – | – | – | COc1ccc(CNCc2ccc(-c3cccc(C#N)c3)cc2)cc1 [Compound 5t]
3.3 | 146 ng·h/mL | 22.8 mL/min/kg | 1.39 h | 1.24 h | 1.7 L/kg | ~2 fold | ~1.4 fold | – | – | – | – | – | – | [2H]C([2H])([2H])Oc1ccc(CNCc2cccc3ccccc23)cc1 [Compound 7]
– | – | – | – | – | – | – | – | 2.15 | 131 ng·h/mL | 25.4 mL/min/kg | 1.56 h | 1.02 h | 1.55 L/kg | [2H]C([2H])([2H])Oc1ccc(CNCc2ccc(-c3cccc(OC)c3)cc2)cc1 [Compound 9]
– | – | – | – | – | – | – | – | 1.94 | 127 ng·h/mL | 26.2 mL/min/kg | 1.54 h | 0.81 h | 1.27 L/kg | [2H]C([2H])([2H])Oc1cccc(-c2ccc(CNCc3ccc(OC)cc3)cc2)c1 [Compound 11]
– | – | – | – | – | – | – | – | 2.06 | 126 ng·h/mL | 26.4 mL/min/kg | 1.59 h | 1.00 h | 1.58 L/kg | [2H]C([2H])([2H])Oc1ccc(CNCc2ccc(-c3cccc(OC([2H])([2H])[2H])c3)cc2)cc1 [Compound 13]
3.36 | 104 ng·h/mL | 31.9 mL/min/kg | 0.75 h | 0.78 h | 1.5 L/kg | – | – | – | – | – | – | – | – | COc1ccc(CNCc2cccc3ccccc23)cc1 [ML133, N-(4-methoxybenzyl)-1-(naphthalen-1-yl)methanamine, reference compound]

Reference: PMC12434521, “Characterization of Next-Generation Inhibitors for the Inward-Rectifier Potassium Channel Kir2.1: Discovery of VU6080824” (ACS Medicinal Chemistry Letters, 2025)
